# Assays:
# Assay in all cases: LanthaScreen Binding - Eu-anti-GST
# Settings in all cases: read-out: Percentage of inhibition
# [1] = molecular target: T1, ZAK (Homo sapiens, UniProt Q9NYL2)
# T1 construct: purchased Life Technologies
# Experimental: (§1) We further evaluated the selectivity profile of compound 55 on a larger panel of kinases (SelectScreen Whole Panel, Life Technologies). The inhibition profile of 55, evaluated at 1 μM, is depicted on a dendrogram on Figure 3 where kinases inhibited by a minimum of 80% are shown. A full list of the kinases tested is shown on Table S1 in supplementary information.
# [2] = molecular target: T2, ERN1 (Homo sapiens, UniProt O75460)
# T2 construct: purchased Life Technologies (SelectScreen Whole Panel service)
# Experimental: as §1
# [3] = molecular target: T3, MAP3K11 (MLK3) (Homo sapiens, UniProt Q16584)
# T3 construct: purchased Life Technologies
# Experimental: as §1
# [4] = molecular target: T4, DDR2 N456S (Homo sapiens, UniProt Q16832, N456S)
# T4 construct: purchased Life Technologies
# Experimental: as §1
# [5] = molecular target: T5, ALK L1196M (Homo sapiens, UniProt Q9UM73, L1196M)
# T5 construct: purchased Life Technologies (SelectScreen Whole Panel service)
# Experimental: as §1
# [6] = molecular target: T6, ALK T1151_L1152insT (Homo sapiens, UniProt Q9UM73, INS1151T)
# T6 construct: purchased Life Technologies
# Experimental: as §1
# [7] = molecular target: ABL1 M351T (Homo sapiens, UniProt P00519, M351T)
# Experimental: as §1
# [8] = molecular target: T7, AAK1 (Homo sapiens, UniProt Q2M2I8)
# T7 construct: purchased Life Technologies
# Experimental: as §1
# [9] = molecular target: T8, STK17A (DRAK1) (Homo sapiens, UniProt Q9UEE5)
# T8 construct: purchased Life Technologies
# Experimental: as §1
# [10] = molecular target: T9, ABL1 Q252H (Homo sapiens, UniProt P00519, Q252H)
# T9 construct: purchased Life Technologies (SelectScreen service)
# Experimental: as §1
# [11] = molecular target: T10, ALK F1174L (Homo sapiens, UniProt Q9UM73, F1174L)
# T10 construct: purchased Life Technologies
# Experimental: as §1
# [12] = molecular target: T11, KIT Y823D (Homo sapiens, UniProt P10721, Y823D)
# T11 construct: purchased Life Technologies
# Experimental: as §1
# [13] = molecular target: PKMYT1 (Homo sapiens, UniProt Q99640)
# Experimental: as §1
# [14] = molecular target: CDK2/cyclin O (Homo sapiens, UniProt P24941)
# Experimental: as §1
# [15] = molecular target: KIT T670E (Homo sapiens, UniProt P10721, T670E)
# Experimental: as §1
# [16] = molecular target: CDK5 (Inactive) (Homo sapiens, UniProt Q00535)
# Experimental: as §1
# [17] = molecular target: T12, TESK2 (Homo sapiens, UniProt Q96S53)
# T12 construct: purchased Life Technologies
# Experimental: as §1
# [18] = molecular target: T13, GAK (Homo sapiens, UniProt O14976)
# T13 construct: purchased Life Technologies (SelectScreen service)
# Experimental: as §1
# [19] = molecular target: TNK2 (ACK) (Homo sapiens, UniProt Q07912)
# Experimental: as §1
# [20] = molecular target: MAP4K3 (GLK) (Homo sapiens, UniProt Q8IVH8)
# Experimental: as §1
# [21] = molecular target: T14, MAP2K5 (MEK5) (Homo sapiens, UniProt Q13163)
# T14 construct: purchased Life Technologies (SelectScreen service)
# Experimental: as §1
# [22] = molecular target: T15, DDR2 (Homo sapiens, UniProt Q16832)
# T15 construct: purchased Life Technologies
# Experimental: as §1
# [23] = molecular target: T16, TGFBR2 (Homo sapiens, UniProt P37173)
# T16 construct: purchased Life Technologies (SelectScreen Whole Panel)
# Experimental: as §1
# [24] = molecular target: T17, CDK13/cyclin K (Homo sapiens, UniProt Q14004)
# T17 construct: purchased Life Technologies (SelectScreen Whole Panel service)
# Experimental: as §1
# [25] = molecular target: T18, ACVR2A (Homo sapiens, UniProt P27037)
# T18 construct: purchased Life Technologies (SelectScreen)
# Experimental: as §1
# [26] = molecular target: T19, MAP2K4 (MEK4) (Homo sapiens, UniProt P45985)
# T19 construct: purchased Life Technologies (SelectScreen service)
# Experimental: as §1
# [27] = molecular target: T20, SIK1 (Homo sapiens, UniProt P57059)
# T20 construct: purchased Life Technologies (SelectScreen Whole Panel service)
# Experimental: as §1
# [28] = molecular target: T21, CDK14 (PFTK1)/cyclin Y (Homo sapiens, UniProt O94921)
# T21 construct: purchased Life Technologies
# Experimental: as §1
# [29] = molecular target: TESK1 (Homo sapiens, UniProt Q15569)
# Experimental: as §1
# [30] = molecular target: T22, DDR1 (Homo sapiens, UniProt Q08345)
# T22 construct: purchased Life Technologies
# Experimental: as §1
# [31] = molecular target: T23, PRKACG (PRKAC gamma) (Homo sapiens, UniProt P22612)
# T23 construct: purchased Life Technologies (SelectScreen Whole Panel service)
# Experimental: as §1
# [32] = molecular target: T24, BRAF V599E (Homo sapiens, UniProt P15056, V600E)
# T24 construct: purchased Life Technologies
# Experimental: as §1
# [33] = molecular target: T25, ULK2 (Homo sapiens, UniProt Q8IYT8)
# T25 construct: purchased Life Technologies (SelectScreen service)
# Experimental: as §1
# [34] = molecular target: T26, RET V804M (Homo sapiens, UniProt P07949, V804M)
# T26 construct: purchased Life Technologies (SelectScreen service)
# Experimental: as §1
# [35] = molecular target: T27, VRK2 (Homo sapiens, UniProt Q86Y07)
# T27 construct: purchased Life Technologies (SelectScreen Whole Panel)
# Experimental: as §1
# [36] = molecular target: MKNK2 (MNK2) (Homo sapiens, UniProt Q9HBH9)
# Experimental: as §1
# [37] = molecular target: T28, MASTL (Homo sapiens, UniProt Q96GX5)
# T28 construct: purchased Life Technologies (SelectScreen Whole Panel)
# Experimental: as §1
# [38] = molecular target: T29, DDR2 T654M (Homo sapiens, UniProt Q16832, T654M)
# T29 construct: purchased Life Technologies (SelectScreen service)
# Experimental: as §1
# [39] = molecular target: T30, PRKACB (PRKAC beta) (Homo sapiens, UniProt P22694)
# T30 construct: purchased Life Technologies
# Experimental: as §1
# [40] = molecular target: HUNK (Homo sapiens, UniProt P57058)
# Experimental: as §1
# T14 sequence (Q13163 whole entry): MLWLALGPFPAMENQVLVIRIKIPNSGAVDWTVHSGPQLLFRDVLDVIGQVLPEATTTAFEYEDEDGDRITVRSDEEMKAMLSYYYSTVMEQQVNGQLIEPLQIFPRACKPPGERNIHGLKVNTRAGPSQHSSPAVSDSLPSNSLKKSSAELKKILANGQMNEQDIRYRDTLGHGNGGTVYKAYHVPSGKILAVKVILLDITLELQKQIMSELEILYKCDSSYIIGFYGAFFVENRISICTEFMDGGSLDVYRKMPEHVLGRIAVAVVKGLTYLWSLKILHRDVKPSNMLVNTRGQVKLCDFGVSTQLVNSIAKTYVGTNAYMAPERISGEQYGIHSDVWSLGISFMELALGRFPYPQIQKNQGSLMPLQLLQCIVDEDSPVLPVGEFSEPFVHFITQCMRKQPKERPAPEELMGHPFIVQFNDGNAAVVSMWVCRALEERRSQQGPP
# Sequence of HUNK (P57058 whole entry): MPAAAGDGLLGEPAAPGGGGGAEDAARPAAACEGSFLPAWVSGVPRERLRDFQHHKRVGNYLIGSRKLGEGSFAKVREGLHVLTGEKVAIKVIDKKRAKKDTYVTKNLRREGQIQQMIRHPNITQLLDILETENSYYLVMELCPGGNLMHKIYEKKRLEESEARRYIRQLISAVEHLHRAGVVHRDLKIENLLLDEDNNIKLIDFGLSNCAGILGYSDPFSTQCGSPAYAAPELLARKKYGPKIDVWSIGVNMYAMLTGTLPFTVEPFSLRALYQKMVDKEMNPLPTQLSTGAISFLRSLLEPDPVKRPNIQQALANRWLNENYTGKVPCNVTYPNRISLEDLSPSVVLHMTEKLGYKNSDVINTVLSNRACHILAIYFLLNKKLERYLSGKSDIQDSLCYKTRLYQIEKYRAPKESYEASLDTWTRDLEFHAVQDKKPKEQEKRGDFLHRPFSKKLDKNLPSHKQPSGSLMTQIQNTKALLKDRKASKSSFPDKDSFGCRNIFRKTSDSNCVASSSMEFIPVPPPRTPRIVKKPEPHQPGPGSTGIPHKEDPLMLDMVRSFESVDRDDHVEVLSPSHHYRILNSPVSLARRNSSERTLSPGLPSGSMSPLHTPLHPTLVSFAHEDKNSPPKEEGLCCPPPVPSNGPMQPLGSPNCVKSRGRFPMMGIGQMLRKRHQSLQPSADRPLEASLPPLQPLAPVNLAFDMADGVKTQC
# T23 sequence (P22612 whole entry): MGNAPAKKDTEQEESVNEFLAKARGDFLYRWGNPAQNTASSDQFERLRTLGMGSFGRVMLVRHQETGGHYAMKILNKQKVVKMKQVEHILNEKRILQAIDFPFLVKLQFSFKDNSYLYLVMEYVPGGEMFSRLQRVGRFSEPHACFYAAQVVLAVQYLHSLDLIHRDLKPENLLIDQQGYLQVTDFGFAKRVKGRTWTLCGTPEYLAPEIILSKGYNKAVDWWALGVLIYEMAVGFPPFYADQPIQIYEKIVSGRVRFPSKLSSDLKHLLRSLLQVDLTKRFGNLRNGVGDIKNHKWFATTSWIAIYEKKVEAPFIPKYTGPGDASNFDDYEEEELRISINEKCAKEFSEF
# T26 sequence (P07949 29-1114 V804M): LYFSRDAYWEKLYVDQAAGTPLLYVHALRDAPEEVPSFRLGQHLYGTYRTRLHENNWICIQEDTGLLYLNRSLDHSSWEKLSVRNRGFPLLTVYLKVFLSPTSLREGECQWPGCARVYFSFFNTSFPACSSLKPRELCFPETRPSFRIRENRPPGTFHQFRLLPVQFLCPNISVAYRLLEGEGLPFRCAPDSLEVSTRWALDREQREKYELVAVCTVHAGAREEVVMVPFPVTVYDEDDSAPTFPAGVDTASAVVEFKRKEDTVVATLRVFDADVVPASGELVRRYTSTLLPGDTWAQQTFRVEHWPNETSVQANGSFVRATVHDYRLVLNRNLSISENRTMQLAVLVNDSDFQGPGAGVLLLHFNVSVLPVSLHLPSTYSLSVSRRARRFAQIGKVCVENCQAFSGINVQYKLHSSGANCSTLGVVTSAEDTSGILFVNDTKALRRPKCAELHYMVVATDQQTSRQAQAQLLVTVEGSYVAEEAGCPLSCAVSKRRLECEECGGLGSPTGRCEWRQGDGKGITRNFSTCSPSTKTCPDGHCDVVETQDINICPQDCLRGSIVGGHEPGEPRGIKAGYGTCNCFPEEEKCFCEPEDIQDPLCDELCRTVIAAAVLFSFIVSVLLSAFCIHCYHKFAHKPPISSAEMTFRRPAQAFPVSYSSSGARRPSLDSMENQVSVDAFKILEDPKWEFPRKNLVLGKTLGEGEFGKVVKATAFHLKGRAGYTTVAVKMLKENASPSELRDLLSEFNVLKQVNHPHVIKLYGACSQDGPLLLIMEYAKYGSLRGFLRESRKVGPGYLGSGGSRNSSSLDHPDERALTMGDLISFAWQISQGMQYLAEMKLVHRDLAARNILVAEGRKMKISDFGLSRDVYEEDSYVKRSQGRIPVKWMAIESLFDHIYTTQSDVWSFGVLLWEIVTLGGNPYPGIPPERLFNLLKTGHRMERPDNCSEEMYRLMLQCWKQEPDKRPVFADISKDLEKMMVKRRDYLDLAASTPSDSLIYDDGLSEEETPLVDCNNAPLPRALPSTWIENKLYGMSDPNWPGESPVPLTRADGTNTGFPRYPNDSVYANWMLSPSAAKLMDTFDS
# T2 sequence (O75460 19-977): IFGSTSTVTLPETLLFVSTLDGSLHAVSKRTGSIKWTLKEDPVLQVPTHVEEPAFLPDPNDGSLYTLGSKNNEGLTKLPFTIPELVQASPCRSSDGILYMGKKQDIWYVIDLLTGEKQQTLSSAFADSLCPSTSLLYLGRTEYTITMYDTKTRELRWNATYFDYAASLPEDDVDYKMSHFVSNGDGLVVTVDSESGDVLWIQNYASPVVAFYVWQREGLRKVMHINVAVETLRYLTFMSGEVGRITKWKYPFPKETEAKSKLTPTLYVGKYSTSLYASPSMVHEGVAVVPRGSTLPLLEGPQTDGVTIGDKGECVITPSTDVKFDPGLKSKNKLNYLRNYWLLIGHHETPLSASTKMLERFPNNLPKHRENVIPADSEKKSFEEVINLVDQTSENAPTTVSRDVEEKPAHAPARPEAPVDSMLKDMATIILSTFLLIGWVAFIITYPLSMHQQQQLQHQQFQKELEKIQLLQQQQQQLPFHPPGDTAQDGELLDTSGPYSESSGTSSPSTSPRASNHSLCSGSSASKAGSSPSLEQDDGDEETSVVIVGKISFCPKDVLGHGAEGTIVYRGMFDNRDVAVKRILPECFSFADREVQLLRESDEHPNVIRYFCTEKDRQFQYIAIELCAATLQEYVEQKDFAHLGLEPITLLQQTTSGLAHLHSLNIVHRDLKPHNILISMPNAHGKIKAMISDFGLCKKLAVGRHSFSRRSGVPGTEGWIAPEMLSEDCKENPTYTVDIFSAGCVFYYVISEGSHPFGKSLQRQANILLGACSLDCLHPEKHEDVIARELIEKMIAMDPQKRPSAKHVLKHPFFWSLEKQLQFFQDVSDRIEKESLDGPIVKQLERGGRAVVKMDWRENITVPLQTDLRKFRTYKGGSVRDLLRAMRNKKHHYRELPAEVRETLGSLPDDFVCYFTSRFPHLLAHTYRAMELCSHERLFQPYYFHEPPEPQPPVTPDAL
# Sequence of TNK2 (ACK) (Q07912 whole entry): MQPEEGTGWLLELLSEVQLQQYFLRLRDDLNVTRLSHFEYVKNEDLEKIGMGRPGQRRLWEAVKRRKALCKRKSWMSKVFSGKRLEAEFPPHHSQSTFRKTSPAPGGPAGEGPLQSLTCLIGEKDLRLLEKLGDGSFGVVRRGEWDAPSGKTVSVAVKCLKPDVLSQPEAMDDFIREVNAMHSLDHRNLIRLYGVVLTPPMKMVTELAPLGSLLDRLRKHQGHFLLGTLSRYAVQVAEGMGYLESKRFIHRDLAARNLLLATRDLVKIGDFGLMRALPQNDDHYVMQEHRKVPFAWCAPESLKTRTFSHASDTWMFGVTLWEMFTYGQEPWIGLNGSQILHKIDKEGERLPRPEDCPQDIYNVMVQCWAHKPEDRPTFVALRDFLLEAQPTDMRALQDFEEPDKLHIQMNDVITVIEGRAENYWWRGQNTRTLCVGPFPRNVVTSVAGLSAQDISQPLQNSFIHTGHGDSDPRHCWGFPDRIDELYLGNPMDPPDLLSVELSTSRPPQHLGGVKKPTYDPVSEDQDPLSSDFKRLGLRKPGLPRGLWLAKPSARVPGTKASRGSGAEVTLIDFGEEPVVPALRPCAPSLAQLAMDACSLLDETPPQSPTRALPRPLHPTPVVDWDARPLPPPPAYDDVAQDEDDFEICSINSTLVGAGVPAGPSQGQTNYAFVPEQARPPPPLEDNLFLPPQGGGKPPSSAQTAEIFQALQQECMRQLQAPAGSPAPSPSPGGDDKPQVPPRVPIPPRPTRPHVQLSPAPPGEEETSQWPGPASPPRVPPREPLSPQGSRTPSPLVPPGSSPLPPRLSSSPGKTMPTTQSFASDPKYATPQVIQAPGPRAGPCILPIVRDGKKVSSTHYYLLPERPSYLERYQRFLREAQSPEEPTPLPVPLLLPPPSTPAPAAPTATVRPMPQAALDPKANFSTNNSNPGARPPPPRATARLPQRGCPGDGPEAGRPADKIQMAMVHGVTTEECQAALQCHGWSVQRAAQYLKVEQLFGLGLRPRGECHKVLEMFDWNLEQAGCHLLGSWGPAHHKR
# Sequence of CDK5 (Inactive) (Q00535 whole entry): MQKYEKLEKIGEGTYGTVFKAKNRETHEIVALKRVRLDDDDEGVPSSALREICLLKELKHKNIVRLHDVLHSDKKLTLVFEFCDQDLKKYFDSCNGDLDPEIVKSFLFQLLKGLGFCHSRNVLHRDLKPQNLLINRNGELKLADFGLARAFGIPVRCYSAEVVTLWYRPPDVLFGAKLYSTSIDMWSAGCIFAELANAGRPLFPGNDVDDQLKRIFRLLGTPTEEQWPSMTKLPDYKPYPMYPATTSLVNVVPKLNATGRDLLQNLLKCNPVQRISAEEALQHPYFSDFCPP
compound,measurement,setting,value
"COc1ccc2[nH]c3c(=O)[nH]c4ccc(O)cc4c3c2c1 [Compound 55, 2-Hydroxy-10-methoxy-5,7-dihydro-6H-indolo[2,3-c]quinolin-6-one]",inhibition at 1 µM,[1],4%
same,inhibition at 1 µM,[2],16%
same,inhibition at 1 µM,[3],36%
same,inhibition at 1 µM,[4],41%
same,inhibition at 1 µM,[5],15%
same,inhibition at 1 µM,[6],32%
same,inhibition at 1 µM,[7],60%
same,inhibition at 1 µM,[8],97%
same,inhibition at 1 µM,[9],95%
same,inhibition at 1 µM,[10],77%
same,inhibition at 1 µM,[11],33%
same,inhibition at 1 µM,[12],30%
same,inhibition at 1 µM,[13],14%
same,inhibition at 1 µM,[14],61%
same,inhibition at 1 µM,[15],63%
same,inhibition at 1 µM,[16],21%
same,inhibition at 1 µM,[17],3%
same,inhibition at 1 µM,[18],90%
same,inhibition at 1 µM,[19],15%
same,inhibition at 1 µM,[20],59%
same,inhibition at 1 µM,[21],80%
same,inhibition at 1 µM,[22],3%
same,inhibition at 1 µM,[23],102%
same,inhibition at 1 µM,[24],17%
same,inhibition at 1 µM,[25],8%
same,inhibition at 1 µM,[26],26%
same,inhibition at 1 µM,[27],19%
same,inhibition at 1 µM,[28],35%
same,inhibition at 1 µM,[29],15%
same,inhibition at 1 µM,[30],5%
same,inhibition at 1 µM,[31],17%
same,inhibition at 1 µM,[32],6%
same,inhibition at 1 µM,[33],25%
same,inhibition at 1 µM,[34],88%
same,inhibition at 1 µM,[35],54%
same,inhibition at 1 µM,[36],19%
same,inhibition at 1 µM,[37],50%
same,inhibition at 1 µM,[38],73%
same,inhibition at 1 µM,[39],35%
same,inhibition at 1 µM,[40],20%

# — publication PMC9186362, “Design and biological evaluation of substituted 5,7-dihydro-6H-indolo[2,3-c]quinolin-6-one as novel selective Haspin inhibitors” (Journal of Enzyme Inhibition and Medicinal Chemistry, 2022)
